≈ marks a conversion by molar mass, not a printed value. Where “and” joins values, the source holds several entries; their conditions need not be identical. Equal values may be shown once.
Columns and labels:
P388 [1] = experiment: Percentage of the median survival time of P388 leukemic mice (T) at intraperitoneal administration of 0.4 mg/kg dose to that of controls (C); assay type: functional, Mus musculus
P388 [2] = experiment: Percentage of the median survival time of P388 leukemic mice (T) at intraperitoneal administration of 6.25 mg/kg dose to that of controls (C); assay type: functional, Mus musculus
P388 [3] = experiment: Percentage of the median survival time of P388 leukemic mice (T) at intraperitoneal administration of 1.6 mg/kg dose to that of controls (C); assay type: functional, Mus musculus
KB = experiment: Compound was evaluated for cytotoxicity against human epidermoid carcinoma of nasopharynx (KB) cells; assay type: functional, cell-based
L1210 = experiment: Compound was evaluated for cytotoxicity against L1210 leukemia cells; assay type: functional, cell-based; conditions: Mus musculus
[4] = tested on: KATO III stomach cancer cell line; experiment: Compound was evaluated for cytotoxicity against KATO-III gastric carcinoma cells; assay type: functional, cell-based; conditions: Homo sapiens
Colon 26 [5] = experiment: Compound was evaluated for percent tumor volume against colon 26 cells in mice (T) at a dose of 3.13 mg/kg intravenous administration after 12 days ot that of control (C), (Number of mice surviving / number of mice tested); T/C, 6/8; assay type: functional, Mus musculus
B16 [6] = experiment: Compound was evaluated for percent tumor volume against B16 melanoma in mice (T) at 6.25 mg/kg intravenous administration after 8 days ot that of control (C); assay type: functional, Mus musculus
B16 [7] = experiment: Compound was evaluated for percent tumor volume against B16 melanoma in mice (T) at 3.13 mg/kg intravenous administration after 8 days ot that of control (C); assay type: functional, Mus musculus
Colon 26 [8] = experiment: Compound was evaluated for percent tumor volume against colon 26 cells in mice (T) at a dose of 3.13 mg/kg intravenous administration after 10 days ot that of control (C), (Number of mice surviving / number of mice tested; T/C), 7/8; assay type: functional, Mus musculus
B16 [9] = experiment: Compound was evaluated for percent tumor volume against B16 melanoma in mice (T) at 6.25 mg/kg intravenous administration after 11 days ot that of control (C); assay type: functional, Mus musculus
B16 [10] = experiment: Compound was evaluated for percent tumor volume against B16 melanoma in mice (T) at 3.13 mg/kg intravenous administration after 11 days ot that of control (C); assay type: functional, Mus musculus
Colon 26 [11] = experiment: Compound was evaluated for percent tumor volume against colon 26 cells in mice (T) at a dose of 6.25 mg/kg intravenous administration after 8 days ot that of control (C); assay type: functional, Mus musculus
Colon 26 [12] = experiment: Compound was evaluated for percent tumor volume against colon 26 cells in mice (T) at a dose of 3.13 mg/kg intravenous administration after 8 days ot that of control (C); assay type: functional, Mus musculus
Colon 26 [13] = experiment: Compound was evaluated for percent tumor volume against colon 26 cells in mice (T) at a dose of 6.25 mg/kg intravenous administration after 10 days ot that of control (C); assay type: functional, Mus musculus
B16 [14] = experiment: Compound was evaluated for percent tumor volume against B16 melanoma in mice (T) at 3.13 mg/kg intravenous administration after 13 days ot that of control (C); assay type: functional, Mus musculus
Colon 26 [15] = experiment: Compound was evaluated for percent tumor volume against colon 26 cells in mice (T) at a dose of 1.6 mg/kg intravenous administration after 12 days ot that of control (C); assay type: functional, Mus musculus
Colon 26 [16] = experiment: Compound was evaluated for percent tumor volume against colon 26 cells in mice (T) at a dose of 1.6 mg/kg intravenous administration after 10 days ot that of control (C); assay type: functional, Mus musculus
Colon 26 [17] = experiment: Compound was evaluated for percent tumor volume against colon 26 cells in mice (T) at a dose of 1.6 mg/kg intravenous administration after 8 days ot that of control (C); assay type: functional, Mus musculus
Colon 26 [18] = experiment: Compound was evaluated for percent tumor volume against colon 26 cells in mice (T) at a dose of 6.25 mg/kg intravenous administration after 12 days ot that of control (C), (Number of mice surviving / number of mice tested); T/C, 7/8; assay type: functional, Mus musculus
P388 [19] = experiment: Percentage of the median survival time of P388 leukemic mice (T) at intraperitoneal administration of 6.25 mg/kg dose to that of controls (C); Toxic; assay type: functional, organism-based; set-up: dose 6.25 mg/kg; conditions: Mus musculus

CCN(CC)CCOc1ccc2cc1Oc1cccc(c1)C[C@H]1C(=O)N(C)[C@@H](C2)C(=O)N[C@H](C)C(=O)N[C@@H](C)C(=O)N(C)[C@@H](Cc2ccc(OC)cc2)C(=O)N[C@@H](C)C(=O)N1C
T/C (P388 [1]): 116% | T/C (P388 [2]): 136% | T/C (P388 [3]): 124%

COc1ccc(C[C@H]2C(=O)N[C@@H](C)C(=O)N(C)[C@H]3Cc4cccc(c4)Oc4cc(ccc4OCCN4CCCCC4)C[C@@H](C(=O)N[C@H](C)C(=O)N[C@@H](C)C(=O)N2C)N(C)C3=O)cc1 [listing 1 of 2 here]
IC50 (KB): 0.0087 µg/mL (≈ 0.01 µM)

COc1ccc(C[C@H]2C(=O)N[C@@H](C)C(=O)N(C)[C@H]3Cc4cccc(c4)Oc4cc(ccc4OCCN(C(C)C)C(C)C)C[C@@H](C(=O)N[C@H](C)C(=O)N[C@@H](C)C(=O)N2C)N(C)C3=O)cc1
IC50 (L1210): 0.0045 µg/mL (≈ 0.00509 µM) | IC50 (KB): 0.0046 µg/mL (≈ 0.0052 µM) | IC50 [4]: 0.0015 µg/mL (≈ 0.0017 µM)

COc1ccc(C[C@H]2C(=O)N[C@@H](C)C(=O)N(C)[C@H]3Cc4cccc(c4)Oc4cc(ccc4OCCN4CCCC4)C[C@@H](C(=O)N[C@H](C)C(=O)N[C@@H](C)C(=O)N2C)N(C)C3=O)cc1 [listing 1 of 2 here]
IC50 (KB): 0.019 µg/mL (≈ 0.0222 µM)

COc1ccc(C[C@H]2C(=O)N[C@@H](C)C(=O)N(C)[C@H]3Cc4cccc(c4)Oc4cc(ccc4OCCN(C)C)C[C@@H](C(=O)N[C@H](C)C(=O)N[C@@H](C)C(=O)N2C)N(C)C3=O)cc1 [listing 1 of 2 here]
T/C (Colon 26 [5]): 101.5% | T/C (B16 [6]): 57% and 40.8% | T/C (B16 [7]): 77.2% | T/C (Colon 26 [8]): 55.8% | T/C (B16 [9]): 40.8% | T/C (B16 [10]): 67.9% | T/C (P388 [1]): 127% | T/C (P388 [2]): 153% | T/C (Colon 26 [11]): 48.1% | T/C (Colon 26 [12]): 54.4% | T/C (Colon 26 [13]): 70% | T/C (P388 [3]): 145% | T/C (B16 [14]): 140.5% | T/C (Colon 26 [15]): 102.5% | T/C (Colon 26 [16]): 76.7% | T/C (Colon 26 [17]): 84.1% | T/C (Colon 26 [18]): 125.5%

COc1ccc(C[C@H]2C(=O)N[C@@H](C)C(=O)N(C)[C@H]3Cc4cccc(c4)Oc4cc(ccc4OCCN4CCCCC4)C[C@@H](C(=O)N[C@H](C)C(=O)N[C@@H](C)C(=O)N2C)N(C)C3=O)cc1 [listing 2 of 2 here]
T/C (P388 [1]): 115% | T/C (P388 [2]): 127% | T/C (P388 [3]): 123%

COc1ccc(C[C@H]2C(=O)N[C@@H](C)C(=O)N(C)[C@H]3Cc4cccc(c4)Oc4cc(ccc4OCCN(C)C)C[C@@H](C(=O)N[C@H](C)C(=O)N[C@@H](C)C(=O)N2C)N(C)C3=O)cc1 [listing 2 of 2 here]
IC50 (L1210): 0.018 µg/mL (≈ 0.0217 µM) | IC50 (KB): 0.025 µg/mL (≈ 0.0302 µM) | IC50 [4]: 0.079 µg/mL (≈ 0.0954 µM)

COc1ccc(C[C@H]2C(=O)N[C@@H](C)C(=O)N(C)[C@H]3Cc4cccc(c4)Oc4cc(ccc4OCCN4CCCC4)C[C@@H](C(=O)N[C@H](C)C(=O)N[C@@H](C)C(=O)N2C)N(C)C3=O)cc1 [listing 2 of 2 here]
T/C (P388 [1]): 112% | T/C (P388 [2]): 134% | T/C (P388 [3]): 124%

COc1ccc(C[C@H]2C(=O)N[C@H](C)C(=O)N(C)[C@H]3Cc4cccc(c4)Oc4cc(ccc4OC)C[C@@H](C(=O)N[C@H](C)C(=O)N[C@@H](C)C(=O)N2C)N(C)C3=O)cc1
T/C (P388 [19]): Toxic

Reference: ChEMBL document CHEMBL1129817, “Novel water-soluble analogues retaining potent antitumor activity of RA-VII, a cyclic hexapeptide from Rubia plants” (Bioorg Med Chem Lett, 1997)
